From PubChem BioAssay (NCI)
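48-hour exposure; five concentrations; linearly interpolated endpoints. Here, GI50 denotes the concentration required for 50% inhibition of growth. TGI denotes the concentration required for complete inhibition of growth.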

Tests used:
Experiment in all cases: NCI tumour cell line growth inhibition, 48 h
[1] = tested on: HCT-116 colon
[2] = tested on: HOP-18 NSCLC
[3] = tested on: M19-MEL melanoma
[4] = tested on: SW-620 colon
[5] = tested on: U251 CNS
[6] = tested on: UACC-257 melanoma
[7] = tested on: SK-OV-3 ovarian
[8] = tested on: SNB-75 CNS
[9] = tested on: HL-60(TB) leukemia
[10] = tested on: T-47D breast

Row | Compound | TGI [1] [µM] | TGI [2] [µM] | TGI [3] [µM] | TGI [4] [µM] | TGI [5] [µM] | TGI [6] [µM] | TGI [7] [µM] | TGI [8] [µM] | TGI [9] [µM] | GI50 [2] [µM] | GI50 [3] [µM] | GI50 [7] [µM] | GI50 [1] [µM] | GI50 [9] [µM] | GI50 [8] [µM] | GI50 [4] [µM] | GI50 [10] [µM] | TGI [10] [µM] | GI50 [5] [µM] | GI50 [6] [µM]
1 | COC(=O)/C(=N\NC(=S)NN)C(C(=O)C(=O)Nc1ccccc1C(N)=O)c1nc2ccccc2[nH]c1=O (stereo not given) | > 100 | > 100 | > 100 | > 100 | > 100 | > 100 |  |  |  |  |  |  |  |  |  |  |  |  |  | 
2 | CCOc1cccc2nc3cccc(C(=O)NCCN(C)C)c3nc12 | 2.37 | > 38.4 | 2.83 |  | 9.26 | 6.45 | > 35.4 | 11.6 |  |  |  |  |  |  |  |  |  |  |  | 
3 | COc1ccc(C(=O)C(C(=O)CCC(=O)Nc2cccc(C(F)(F)F)c2)c2ccccc2)cc1 (stereo not given) | > 100 | > 100 | > 100 | > 100 | > 100 | > 100 | > 100 | > 100 | > 100 |  |  |  |  |  |  |  |  |  |  | 
4 | N#Cc1c(N)c(C(=O)O)nn(-c2cccc(C(F)(F)F)c2)c1=O | > 100 | > 100 | > 100 | > 100 | > 100 |  | > 100 | > 100 | > 100 |  |  |  |  |  |  |  |  |  |  | 
5 | CC1(C)OC(=O)C=C([O-])O1.CC1(C)OC(=O)C=C([O-])O1.O=c1c(O)c(-c2ccc([O-])cc2[O-])oc2cc(O)cc(O)c12.[Ti+4] | > 100 | > 100 | > 100 | > 100 |  | > 100 | > 100 | 60.4 | > 100 | 25 | 92.1 | 83.1 |  |  |  |  |  |  |  | 
6 | C=C(COC(C)=O)CC(/C=C(\C)CCC=C(C)C)OC(C)=O (stereo not given) | > 100 |  | > 100 | > 100 | > 100 |  | > 100 | > 100 | > 100 |  |  |  |  |  |  |  |  |  |  | 
7 | O=C1N[C@@H](O)[C@@H]2ON=C(c3ccccc3)[C@H]12 | > 100 | > 100 | > 100 | > 100 | > 100 | > 100 | > 100 | > 100 | > 100 |  |  |  |  |  |  |  |  |  |  | 
8 | CC/C=C\C/C=C\C1CC(=O)NCCCNCCCCN1 (stereo not given) | > 100 |  | > 100 | > 100 | > 100 | > 100 |  | > 100 | > 100 |  |  |  |  |  |  |  |  |  |  | 
9 | CN(C)C(=S)/N=c1\ss/c(=N\S(=O)(=O)c2ccccc2)n1-c1ccccc1 |  | > 100 | > 100 | > 100 | > 100 | > 100 | > 100 | > 100 | > 100 |  |  |  |  |  |  |  |  |  |  | 
10 | CC1(C)CCc2cc3c(cc2O1)OCCC3=O | > 100 | > 100 | > 100 | > 100 | > 100 | > 100 | > 100 | > 100 | > 100 |  |  |  |  |  |  |  |  |  |  | 
11 | COc1cc(/C=C/C(=N\NC(=O)c2ccccc2)c2sc(Nc3ccc(Cl)c(Cl)c3)nc2C)ccc1O | > 100 | 79.3 | > 100 | > 100 | 88.9 | > 100 | > 100 | > 100 | 40 |  |  |  |  |  |  |  |  |  |  | 
12 | CC(C)(C)C1(O)Cc2ccccc2C(=O)O1 (stereo not given) | > 100 | > 100 | > 100 | > 100 | > 100 | > 100 | > 100 | > 100 | > 100 |  |  |  |  |  |  |  |  |  |  | 
13 | CC(=O)[CH-]C(C)=O.CC(=O)[CH-]C(C)=O.N=CC=N.[Sn+2] | 3.42 | 23.7 |  | 3.11 | 17.1 | 15.9 | 21.7 | 13.7 | 15.3 | 11.5 |  | 8.74 | 1.72 | 2.09 | 3.7 | 1.71 | 1.23 | 2.62 | 5.16 | 4.64
14 | O=C(Nc1ccc(S(=O)(=O)N[C@@H](C(=O)O)c2ccccc2)cc1)c1ccc(F)cc1 |  | > 100 | > 100 | > 100 | > 100 | > 100 | > 100 | > 100 |  |  |  |  |  |  |  |  |  |  |  | 
15 | COc1ccc(C2=NC(C)(C)CO2)cc1 | > 100 | > 100 | > 100 | > 100 | > 100 | > 100 |  | > 100 | > 100 |  |  |  |  |  |  |  |  |  |  | 
16 | CC1=Nc2c(ccc3c2C(=O)c2ccccc2C3=O)NC(c2ccncc2)C1 (stereo not given) | > 100 | > 100 | > 100 | > 100 | > 100 | > 100 | > 100 | > 100 | > 100 | > 100 | > 100 |  |  |  |  |  |  |  | > 100 | > 100
17 | CC(=O)OCCOCBr | > 100 | > 100 | > 100 | > 100 | > 100 | > 100 | > 100 | > 100 | > 100 |  |  |  |  |  |  |  |  |  |  | 
18 | NS(=O)(=O)c1ccc(NC(=O)c2cccc3c(=O)c4ccccc4[nH]c23)cc1 | > 100 | > 100 | > 100 | > 100 | > 100 | > 100 | 65.6 | 55.2 | > 100 |  |  |  |  |  |  |  |  |  |  | 
19 | NC(CCSCC(F)F)C(=O)O (stereo not given) | > 100 | > 100 | > 100 | > 100 | > 100 | > 100 |  | > 100 | > 100 |  |  |  |  |  |  |  |  |  |  | 
20 | c1cc[c]([Sn]([S]c2cccc3cccnc23)([c]2ccccc2)[c]2ccccc2)cc1 | 0.039 | 0.214 | 0.172 | 0.0918 | 0.11 |  | 0.356 | 0.0473 |  | 0.0784 |  | 0.107 | 0.0161 |  |  | 0.0225 |  |  | 0.0347 | 
21 | COc1ccc(/C=C/C(=O)c2sc(-n3nc(-c4ccccc4)cc3-c3ccccc3)nc2C)cc1OC | > 100 | > 100 | > 100 | > 100 | > 100 | > 100 | > 100 |  | 62.2 |  |  |  |  |  |  |  |  |  |  | 
22 | Cc1ncc([N+](=O)[O-])n1CCNC(=O)CCCCn1ccnc1[N+](=O)[O-] | > 100 |  |  | > 100 | > 100 | > 100 | > 100 | > 100 | > 100 |  |  |  |  |  |  |  |  | > 100 |  | 
23 | CCCSc1cc(Cl)nc(N)n1 | > 100 |  |  | > 100 | > 100 | > 100 | > 100 | > 100 | 50.5 |  |  | > 100 | > 100 | 6.48 | 90.1 | > 100 | > 100 | > 100 | > 100 | > 100
